Experimental data reported in patent publication US4755510A, “Novel anticonvulsive tetrahydro-1,2,4-oxadiazine-5-thion derivatives and use” (Richter Gedeon Vegyeszeti Gyar R.T., priority 1984, dated 1988).
Like-named read-outs stand apart in the source and are kept apart here.

Legend:
Male CFLP (LATI) mice [1] = assay: Maximal electroshock (MES), protection from tonic extensoric spasm of the lower limbs; assay type: in vivo; details: Mus musculus, po; for ED50: read-out: Anticonvulsive activity MES ED50; for inhibition at 30 mg/kg: read-out: MES inhibition (%)
Method: (§1) The compound to be tested was suspended in 2 percent aqueous Tween 80 (polyoxyethylene sorbitane monolaurate) solution and it was orally administered to the animals through a bougie in a dose of 30 mg/kg when the anticonvulsive activity was tested, while in a dose of 120 mg/kg when the neurotoxic activity was examined. The effect triggered was measured after 1 hour of the administration. Male CFLP (LATI) mice having a weight of 18 to 22 g were used in the tests.
The animals were shocked with a corneal electrode (20 mA, 0.2 sec.) (H. Schachs Elektronik, Marchs, Augstatten, Germany, "schockreizgerat" typ. 207) according to the method of E. A. Swinyard et al. (J. Pharmacol. Exp. Ther. 106, 318 (1952)]. 100% of the control animals responded to the stimulus by the tonic extensoric spasm of the lower limbs. The lack of these occurences was attributed to the protection obtained by the treatment.
MES: maximal electroshock

Male CFLP (LATI) mice [2] = assay: Spasm stimulated by Pentetrazole (PTT); assay type: in vivo; details: po; for ED50: Mus musculus, read-out: Anticonvulsive activity PTT TE (tonic extensoric spasm) ED50
Method: as §1
According to the method of G. M. Everett and R. K. Richard [J. Pharmacol. Exp. Ther., 81, 402, (1944)] the test animals were treated with 125 mg/kg of Pentetrazole (pentamethylene tetrazole) after 1 hour of the administration of the compound to be tested. The lack of the clonic spasm (KI) and the tonic extensoric spasm of the lower limbs (TE) was attributed to the protection obtained as a result of the treatment.
PTT: inhibition of the spasm stimulated by pentetrazole
TE: tonic extensoric spasm

Acute toxicity (LD50) = assay type: in vivo; details: mouse, in vivo, po; one dose, observation through 14 days; probit analysis; read-out: Acute tox. LD50
Method: as §1
(§2) The toxicity of the compounds was examined after the administration of 1000 mg/kg of the test compound in one dose by an observation through 14 days. The LD50 value (50 percentile lethal dose) was calculated by probite analysis on the basis of the percentile ratio of the animals died within the 14 days.

Male CFLP (LATI) mice [3] = assay: Spasm stimulated by strychnine (Str); assay type: in vivo; details: Mus musculus, po, 1 h, read-out: Anticonvulsive activity Str (spasm stimulated by strychnine) ED50
Method: as §1
According to the method of T. L. Kerley et al. [J. Pharmacol. Exp. Ther. 132, 360 (1961)] the test animals were i. p. treated with 2.5 mg/kg of strychnine after 1 hour of the administration of the active ingredient to be tested.
Str: inhibition of the spasm stimulated by strychnine

[4] = Neurotoxicity (muscle uncoordination), rotating bar (FR); design: species or system mice (male CFLP (LATI)); details: mouse, in vivo, po
Method: as §1
The change of the coordinated muscle motion was examined on a rotating bar according to the method of C. J. Carr [J. Pharmacol. Exp. Ther., 121, 354 (1957)] (diameter: 20 mm, number of revolutions: 12/minute). The trained control animals could stay on the bar for 120 seconds. After 1 hour of the administration of the test compound, it was examined which percent of the animals fell down from the rotating bar within 120 seconds.

Male CFLP (LATI) mice [5] = assay: Acute toxicity (LD50); assay type: in vivo; details: one dose, observation through 14 days; probit analysis
Method: as §1, §2

Structure (SMILES) | ED50 (Male CFLP (LATI) mice [1]; 1 h) [mg/kg] | ED50 (Male CFLP (LATI) mice [2]; 1 h) [mg/kg] | LD50 at 336 h (Acute toxicity (LD50)) [mg/kg] | Anticonvulsive activity PTT K1 (clonic spasm) ED50 (Male CFLP (LATI) mice [2]; 1 h) [mg/kg] | also measured
CC(=O)N1O[C@H](C)C(=S)N[C@@H]1c1ccccc1 (relative stereo) [A] | 11.9 | 6.1 | 1000 |  | 
CC(=O)N1O[C@H](C)C(=S)N[C@@H]1c1ccccc1C (relative stereo) [C, 2-Acetyl-3-(2-methylphenyl)-6-methyl-tetrahydro-1,2,4-oxadiazine-5-thion] | 10 | 4.3 | 1000 |  | ED50 (Male CFLP (LATI) mice [3]): 25.6 mg/kg
CC(=O)N1O[C@H](C)C(=S)N[C@@H]1c1ccc(N(C)C)cc1 (relative stereo) [D] | 30 | 9.9 | 1000 | 0 | 
CC[C@H]1ON(C(C)=O)[C@@H](c2ccccc2)NC1=S (relative stereo) [F] |  | 15.4 | 1000 | 0 | inhibition at 30 mg/kg (Male CFLP (LATI) mice [1]; 1 h): 40%
CC(=O)N1O[C@H](C)C(=S)N[C@@H]1c1ccccc1 [B] | 16.1 | 12.6 | 1000 |  | 
O=C1NC(=O)C(c2ccccc2)(c2ccccc2)N1 [Compound K1, Diphenyl hydantoin, reference compound] |  |  |  |  | ED50 (Male CFLP (LATI) mice [1]; 1 hour after administration, corneal electrode 20 mA, 0.2 sec): 8.3 mg/kg; ED50 (Male CFLP (LATI) mice [2]; Pentetrazole 125 mg/kg 1 hour after administration, tonic extensoric spasm): 9.9 mg/kg; TD50 at 1 h [4]: 47.7 mg/kg; Acute tox. LD50 (Male CFLP (LATI) mice [5]): 278 mg/kg
CC(=O)N1OCC(=O)NC1c1ccccc1 (centres unmarked) [Compound K2, 2-Acetyl-3-phenyl-tetrahydro-1,2,4-oxadiazine-5-one, reference compound] | 22.7 | 13.4 |  |  | TD50 at 1 h ([4]; rotating bar 12/minute, 120 seconds, 1 hour after administration, read-out: Neurotox. FR (rotating bar) ED50): 130 mg/kg
CC(=O)N1OCC(=S)NC1c1ccccc1 (centres unmarked) [E, 2-Acetyl-3-phenyl-tetrahydro-1,2,4-oxadiazine-5-thion] |  | 16.6 | 1000 | 0 | inhibition at 30 mg/kg (Male CFLP (LATI) mice [1]; 1 h): 10%
